Assay results taken from patent EP1792623B1, “Use of extracts and constituents of leontopodium as enhancers of cholinergic function” (Leopold-Franzens-Universität Innsbruck, priority 2005, dated 2007).

Legend:
[1] = system: release of ACh in rat brain; assay: ACh release in nucleus accumbens, push-pull technique, after i.c.v. application; type: in vivo, Sprague-Dawley rats; conditions: 2 µmol i.c.v.
From the text: Surgery and push-pull technique: Protocols of experiments were approved by the Bundesministerium für Wissenschaft, Forschung and Kunst, Austria, Kommission für Tierversuchsangelegenheitem. Sprague-Dawley rats (250-280 g) were anaesthetized with urethane 1.2 g/kg. i.p. The head was fixed in a stereotaxic frame and a push-pull cannula (outer tubing: o.d. 0.75 mm, i.d. 0.41 mm; inner tubing: o.d. 0.26 mm, i.d. 0.13 mm) was mounted on a microdrive. This was stereotaxically inserted through a hole in the skull into the nucleus accumbens (coordinates, mm from bregma: AP, +1.2, L, +2.5; V, -7.8) (Paxinos G. Watson H. (1998) The rat brain in stereotaxic coordinates, 4th edn. Academic Press, Sidney.). […] After 1 h of the cannula insertion the samples were collected into tubes kept at -20° C in time periods of 10 min and then stored at -80°C until acetylcholine (ACh) was determined. […]
Determination of acetylcholine (ACh): ACh content in the samples was determined by HPLC with a cation-exchanging analytical column and a post-column reactor followed by electrochemical detection (Damsma et al, 1997; Prast et al; 1998). […] The peroxide was electrochemically detected by a UniJet platin electrode (3mm) at +500 mV with an amperometric detector (BAS LC-4, Bioanalytical Systems, West Lafayette, IN, USA). […] ACh was quantified with external standards that were injected at the beginning and the end of the analysis. […]

acetylcholinesterase = type: biochemical; conditions: c = 100 mM, after 60 min, in comparison to medium control
Protocol: Experiments are carried out applying Ellman's method in a 96-well microplate assay described by Ingkaninan et al, Journal of Chromatography A 827 (2000) p. 6173 and Rhee et al, Journal of Chromatography A 915 (2001) p. 217-223. In addition to buffer A described above, a buffer containing 0.1 M NaCl and 0.02 M MgClx2.6 H2O in buffer A is used for preparing a 3 mM solution of DTNB. For the microplate assay the substrate ATCI is dissolved 15 mM in water (HPLC grade). The enzyme stock solution is diluted with buffer A to get 0.22 U/ml. In the 96-well plates, 25 µl of 15 mM ATCl, 125 µl of 3 mM DTNB, 50 µl of buffer A, and 25 µl of sample (10 mM in MeOH, respectively DMSO (dimethylsulfoxide), diluted ten times with buffer A) are added. […] […] The absorbance of the product (2-nitrobenzoate-5-mercapto thioline) is measured at 405 nm with a Chameleon 5025 (Hidex, Finland) microplate reader 0, 15, 30, 45 and 60 minutes after adding 25 µl of 0.22 U/ml acetylcholinesterase-solution to the reaction mixture. All experiments are performed 4 times (n=4) and the data are statistically processed using the SPSS 11.5 program package. Percentage of inhibition is calculated by comparing the rates for the sample to the blank (10% MeOH, resp. DMSO, in buffer).

Substance: 14-acetoxy-isocomene
- release of ACh in rat brain [1]: significantly enhance the concentration of neurotransmitters in the CNS
- inhibition (%) (acetylcholinesterase): 1.4 ± 8.1%
